Consider 29 compounds from US7268152B2, “Glucocorticoid mimetics, methods of making them, pharmaceutical compositions, and uses thereof” (Boehringer Ingelheim Pharmaceuticals, Inc., priority 2002, dated 2007).

SMILES strings stand for the structures.

Broadly, the IC50 is the midpoint of a concentration-inhibition curve. Read a high IC50 as weaker potency in that assay.

This experiment has as its target T1, human glucocorticoid receptor (GR) complex (Homo sapiens, UniProt P04150).
T1 construct: made in house; host or cells: insect expression system (baculovirus lysate)
T1 sequence (P04150 1-777): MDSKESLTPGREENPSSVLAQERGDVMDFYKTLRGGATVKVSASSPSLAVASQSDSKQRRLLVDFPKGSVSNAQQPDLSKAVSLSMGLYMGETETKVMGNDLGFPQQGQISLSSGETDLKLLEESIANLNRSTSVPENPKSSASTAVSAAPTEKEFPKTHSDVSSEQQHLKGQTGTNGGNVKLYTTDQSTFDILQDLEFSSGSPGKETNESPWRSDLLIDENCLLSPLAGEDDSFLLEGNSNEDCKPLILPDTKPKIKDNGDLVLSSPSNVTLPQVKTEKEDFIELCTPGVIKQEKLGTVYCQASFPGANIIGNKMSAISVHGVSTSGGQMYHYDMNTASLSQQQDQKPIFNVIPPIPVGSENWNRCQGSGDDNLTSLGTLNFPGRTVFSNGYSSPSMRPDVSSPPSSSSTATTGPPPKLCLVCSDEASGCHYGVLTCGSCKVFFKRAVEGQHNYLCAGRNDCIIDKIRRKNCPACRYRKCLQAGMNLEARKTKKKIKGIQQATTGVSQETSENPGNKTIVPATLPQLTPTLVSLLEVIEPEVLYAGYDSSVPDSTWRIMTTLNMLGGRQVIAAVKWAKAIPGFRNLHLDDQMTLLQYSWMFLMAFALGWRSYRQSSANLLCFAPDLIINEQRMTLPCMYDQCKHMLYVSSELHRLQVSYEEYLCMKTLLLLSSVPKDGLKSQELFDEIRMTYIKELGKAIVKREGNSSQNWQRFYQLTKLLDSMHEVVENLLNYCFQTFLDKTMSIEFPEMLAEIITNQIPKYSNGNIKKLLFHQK
Description: Glucocorticoid receptor competitive binding assay (fluorescence polarization). The following applies: competition with TAMRA-labeled dexamethasone. The procedure:
Compounds of the invention were evaluated for binding to the steroid receptor by a fluorescence polarization competitive binding assay. Detailed descriptions for preparation of recombinant glucocorticoid receptor (GR) complex used in the assay is described in U.S. provisional application No. 60/291,877, filed May 18, 2001, and incorporated herein by reference in its entirety. Preparation of the tetramethyl rhodamine (TAMRA)-labeled dexamethasone probe was accomplished using a standard literature procedure (M. Pons et al., J. Steroid Biochem., 1985, 22, pp. 267-273).
A. Glucocorticoid Receptor Competitive Binding Assay
Step 1. Characterization of the Fluorescent Probe
The wavelengths for maximum excitation and emission of the fluorescent probe should first be measured. An example of such a probe is rhodamine (TAMRA)-labeled dexamethasone.
The affinity of the probe for the steroid receptor was then determined in a titration experiment. The fluorescence polarization value of the probe in assay buffer was measured on an SLM-8100 fluorometer using the excitation and emission maximum values described above. Aliquots of expression vector lysate were added and fluorescence polarization was measured after each addition until no further change in polarization value was observed. Non-linear least squares regression analysis was used to calculate the dissociation constant of the probe from the polarization values obtained for lysate binding to the probe.
Step 2. Screeningfor Inhibitors of Probe Binding
This assay uses fluorescence polarization (FP) to quantitate the ability of test compounds to compete with tetramethyl rhodamine (TAMRA)-labeled dexamethasone for binding to a human glucocorticoid receptor (GR) complex prepared from an insect expression system. The assay buffer was: 10 mM TES, 50 mM KCl, 20 mM Na2MoO4.2H2O, 1.5 mM EDTA, 0.04% w/v CHAPS, 10% v/v glycerol, 1 mM dithiothreitol, pH 7.4. Test compounds were dissolved to 1 mM in neat DMSO and then further diluted to 10×assay concentration in assay buffer supplemented with 10% v/v DMSO. Test compounds were serially diluted at 10×assay concentrations in 10% DMSO-containing buffer in 96-well polypropylene plates. Binding reaction mixtures were prepared in 96-well black Dynex microtiter plates by sequential addition of the following assay components to each well: […] of 10×test compound solution, 85 μL of GR-containing baculovirus lysate diluted 1:170 in assay buffer, and 50 μL of 15 nM TAMRA-labeled dexamethasone. Positive controls were reaction mixtures containing no test compound; negative controls (blanks) were reaction mixtures containing 0.7 μM to 2 μM dexamethasone. The binding reactions were incubated for 1 hour at room temperature and then read for fluorescence polarization in the LJL Analyst set to 550 nm excitation and 580 nm emission, with the Rhodamine 561 dichroic mirror installed. IC50 values were determined by iterative non-linear curve fitting of the FP signal data to a 4-parameter logistic equation.
In general terms: Polarisation of emitted light reports the rotation of a fluorescent probe.
In turn, `CC(C)(CC(O)(Cc1cc(C(F)(F)F)cc(Cl)c1F)C(F)(F)F)c1cc([N+](=O)[O-])cc2c1OCC2` (centres unmarked) returned a 50% inhibitory concentration (IC50) not above 100 nM.
With `CC(C)(CC(O)(Cc1ccc(Cl)c(Cl)c1)C(F)(F)F)c1cccc(Cl)c1` (centres unmarked) [4-(3-Chlorophenyl)-2-(3,4-dichlorobenzyl)-1,1,1-trifluoro-4-methylpentan-2-ol] the figure was not above 100 nM; with `CC(C)(CC(O)(Cc1cc(C(F)(F)F)cc(Cl)c1F)C(F)(F)F)c1ccccc1` (centres unmarked) [2-(3-Chloro-2-fluoro-5-trifluoromethylbenzyl)-1,1,1-trifluoro-4-methyl-4-phenylpentan-2-ol], not above 100 nM.
As for `CC(C)(CC(O)(Cc1ccc(C#N)cc1)C(F)(F)F)c1cc(F)ccc1O` (centres unmarked) [4-[4-(5-Fluoro-2-hydroxyphenyl)-2-hydroxy-4-methyl-2-trifluoromethylpentyl]benzonitrile], the figure is not above 100 nM.
With `COc1ccc(F)cc1C(C)(C)CC(O)(Cc1cc(Cl)cc(Cl)c1)C(F)(F)F` (centres unmarked) [2-(3,5-Dichlorobenzyl)-1,1,1-trifluoro-4-(5-fluoro-2-methoxyphenyl)-4-methylpentan-2-ol] the figure was not above 100 nM; with `COc1ccc(F)cc1C(C)(C)CC(O)(Cc1cc(Cl)ccc1F)C(F)(F)F` (centres unmarked) [2-(5-Chloro-2-fluorobenzyl)-1,1,1-trifluoro-4-(5-fluoro-2-methoxyphenyl)-4-methylpentan-2-ol], not above 100 nM.
As for `COc1ccc(F)cc1C(C)(C)CC(O)(Cc1ccc(C)c(C)c1)C(F)(F)F` (centres unmarked) [2-(3,4-Dimethylbenzyl)-1,1,1-trifluoro-4-(5-fluoro-2-methoxyphenyl)-4-methylpentan-2-ol], the IC50 was not above 100 nM.
On to `COc1ccc(F)cc1C(C)(C)CC(O)(Cc1ccc(F)c(Cl)c1)C(F)(F)F` (centres unmarked) [2-(3-Chloro-4-fluorobenzyl)-1,1,1-trifluoro-4-(5-fluoro-2-methoxyphenyl)-4-methylpentan-2-ol], for which the IC50 was not above 100 nM.
`CC(C)(CC(O)(Cc1cc(C(F)(F)F)cc(Cl)c1F)C(F)(F)F)c1cccc(Cl)c1` (centres unmarked) [2-(3-Chloro-2-fluoro-5-trifluoromethylbenzyl)-4-(3-chlorophenyl)-1,1,1-trifluoro-4-methylpentan-2-ol] registered an IC50 not above 100 nM.
With `CC(C)(CC(O)(Cc1cc(Cl)cc(Cl)c1)C(F)(F)F)c1cc(F)ccc1O` (centres unmarked) [2-[3-(3,5-Dichlorobenzyl)-4,4,4-trifluoro-3-hydroxy-1,1-dimethylbutyl]4-fluorophenol] the figure was not above 100 nM; with `Cc1cc(CC(O)(CC(C)(C)c2cc(F)ccc2O)C(F)(F)F)ccc1F` (centres unmarked) [4-Fluoro-2-[4,4,4-trifluoro-3-(4-fluoro-3-methylbenzyl)-3-hydroxy-1,1-dimethylbutyl]phenol], not above 100 nM; with `CC(C)(CC(O)(Cc1cc(C(F)(F)F)cc(Cl)c1F)C(F)(F)F)c1cc(F)ccc1O` (centres unmarked) [2-[3-(3-Chloro-2-fluoro-5-trifluoromethylbenzyl)-4,4,4-trifluoro-3-hydroxy-1,1-dimethylbutyl]-4-fluorophenol], not above 100 nM.
In the case of `COc1ccc(F)cc1C(C)(C)CC(O)(C(O)c1cc(C)cc(C)c1)C(F)(F)F` (centres unmarked) [1-(3,5-Dimethylphenyl)-4-(5-fluoro-2-methoxyphenyl)-4-methyl-2-trifluoromethylpentane-1,2-diol], the concentration for half-maximal inhibition (IC50) was not above 100 nM.
As for `CC(C)(CC(O)(Cc1ccc(-c2ccccc2)cc1)C(F)(F)F)c1cc(F)ccc1O` (centres unmarked) [2-(3-Biphenyl-4-ylmethyl-4,4,4-trifluoro-3-hydroxy-1,1-dimethylbutyl)-4-fluorophenol], the figure is not above 100 nM.
With `COc1ccc(F)cc1C(C)(C)CC(O)(Cc1cc(Cl)ccc1Cl)C(F)(F)F` (centres unmarked) [2-(2,5-Dichlorobenzyl)-1,1,1-trifluoro-4-(5-fluoro-2-methoxyphenyl)-4-methylpentan-2-ol] the figure was not above 100 nM.
As for `CC(C)(CC(O)(Cc1cc(C(F)(F)F)cc(C(F)(F)F)c1)C(F)(F)F)c1cc(F)ccc1O` (centres unmarked) [2-[3-(3,5-Bis-trifluoromethylbenzyl)-4,4,4-trifluoro-3-hydroxy-1,1-dimethylbutyl]-4-fluorophenol], the figure is not above 100 nM; as for `COc1ccc(F)cc1C(C)(C)CC(O)(Cc1cc(C(F)(F)F)ccc1F)C(F)(F)F` (centres unmarked) [1,1,1-Trifluoro-4-(5-fluoro-2-methoxyphenyl)-2-(2-fluoro-5-trifluoromethylbenzyl)-4-methylpentan-2-ol], not above 100 nM; as for `COc1ccccc1C(C)(C)CC(O)(Cc1cc(C)cc(C)c1)C(F)(F)F` (centres unmarked) [2-(3,5-Dimethylbenzyl)-1,1,1-tri fluoro-4-(2-methoxyphenyl)-4-methylpentan-2-ol], not above 100 nM.
As to `COc1ccc(F)cc1C(C)(C)CC(O)(Cc1ccc(C=O)cc1)C(F)(F)F` (centres unmarked), the concentration for half-maximal inhibition (IC50) is not above 100 nM.
As to `COc1ccc(F)cc1C(C)(C)CC(O)(Cc1cc(F)cc(C(F)(F)F)c1)C(F)(F)F` (centres unmarked) [1,1,1-Trifluoro-4-(5-fluoro-2-methoxyphenyl)-2-(3-fluoro-5-trifluoromethylbenzyl)-4-methylpentan-2-ol], the IC50 was not above 100 nM.
With `CC(C)(CC(O)(Cc1ccc(C#N)cc1Cl)C(F)(F)F)c1ccc(O)cc1` (centres unmarked) [3-Chloro-4-[2-hydroxy-4-(4-hydroxyphenyl)-4-methyl-2-trifluoromethylpentyl]benzonitrile] the figure was not above 100 nM.
The compound `COc1ccc(F)cc1C(C)(C)CC(O)(Cc1cc(F)cc(F)c1F)C(F)(F)F` (centres unmarked) [1,1,1-Trifluoro-4-(5-fluoro-2-methoxyphenyl)-4-methyl-2-(2,3,5-trifluorobenzyl)pentan-2-ol] had an IC50 not above 100 nM.
With `COc1ccc(F)cc1C(C)(C)CC(O)(Cc1cc(Cl)cc(Cl)c1Cl)C(F)(F)F` (centres unmarked) the figure was not above 100 nM; with `COc1ccc(F)cc1C(C)(C)CC(O)(Cc1cccc(C(F)(F)F)c1F)C(F)(F)F` (centres unmarked) [1,1,1-Trifluoro-4-(5-fluoro-2-methoxyphenyl)-2-(2-fluoro-3-trifluoromethylbenzyl)-4-methylpentan-2-ol], not above 100 nM; with `CC(C)(CC(O)(Cc1cc(C(F)(F)F)cc(Cl)c1F)C(F)(F)F)c1ccc(F)cc1` (centres unmarked) [2-(3-Chloro-2-fluoro-5-trifluoromethylbenzyl)-1,1,1-trifluoro-4-(4-fluorophenyl)-4-methylpentan-2-ol], not above 100 nM.
As for `COc1ccc(F)cc1C(C)(C)CC(O)(Cc1cc(F)cc(F)c1)C(F)(F)F` (centres unmarked) [2-(3,5-Difluorobenzyl)-1,1,1-trifluoro-4-(5-fluoro-2-methoxyphenyl)-4-methylpentan-2-ol], the figure is not above 100 nM.
As for `COc1ccc(F)cc1C(C)(C)CC(O)(Cc1cc(Cl)cc(C#N)c1)C(F)(F)F` (centres unmarked) [3-Chloro-5-[4-(5-fluoro-2-methoxyphenyl)-2-hydroxy-4-methyl-2-trifluoromethylpentyl]benzonitrile], the figure is not above 100 nM.
Consider `CC(C)(CC(O)(Cc1ccc(F)c(F)c1)C(F)(F)F)c1cc(F)ccc1O` (centres unmarked) [2-[3-(3,4-Difluorobenzyl)-4,4,4-trifluoro-3-hydroxy-1,1-dimethylbutyl]4-fluorophenol], for which the IC50 is not above 100 nM.
Consider `CC(C)(CC(O)(Cc1cc(F)c(F)c(F)c1)C(F)(F)F)c1cc(F)ccc1O` (centres unmarked) [4-Fluoro-2-[4,4,4-trifluoro-3-hydroxy-1,1-dimethyl-3-(3,4,5-trifluorobenzyl)butyl]phenol], for which the IC50 is not above 100 nM.
